This series is described as follows: apparent surfactant dissolution (solubility) in propellant, viewed with the naked eye. The note with it: for Solubility of oleic acid in the propellant / Solubility of sorbitan monooleate in the propellant / Solubility of sorbitan trioleate in the propellant: ambient temperature (19.5-25.0° C.). The format is physicochemical. On the procedure: A number of experiments were conducted to investigate the solubility of various surfactants in R-134a and R-152a. The apparent surfactant dissolution in each propellant was studied at ambient temperature (19.5-25.0° C.) by adding a known quantity of surfactant to a plastic-coated, pressure-resistant, clear glass aerosol bottle. A continuous flow valve was then crimped onto the bottle. A total of 10 grams of each propellant was filled into each aerosol bottle such that the surfactant concentration ranged from 0 to 5% w/w. After addition of propellant, the contents were sonicated for 10 mins and viewed with the naked eye for dissolution.

For `CCCCCCCC/C=C\CCCCCCCC(=O)O` [oleic acid], the “solubility in R-152a compared with R-134a” value (R-152a versus R-134a) is on record as “much higher”. Also, the “solubility in R-152a compared with any other surfactant” value (R-152a, versus the other surfactants tested) is on record as “much higher”. Also, the “Solubility of oleic acid in the propellant” value is, setting by setting: (propellant R-134a) “Up to 0.05 % w/w”; (propellant R-152a) “Up to 2.5 % w/w”.
sorbitan monooleate: the “Solubility of sorbitan monooleate in the propellant” value is, setting by setting: (propellant R-134a) “Up to 0.03 % w/w”; (propellant R-152a) “Up to 0.05 % w/w”.
For the compound sorbitan trioleate, the “Solubility of sorbitan trioleate in the propellant” value (propellant R-134a) is “Up to 0.05 % w/w” and the “Solubility of sorbitan trioleate in the propellant” value (propellant R-152a) is on record as “Up to 0.05 % w/w”.

The record behind these values is patent publication US10039828B2, “Compositions comprising salbutamol sulphate” (MEXICHEM AMANCO HOLDING S.A. DE C.V., priority 2011, dated 2018).
